{"source": "the NIST ThermoML archive (doi:10.1016/j.tca.2008.11.005)", "settings": "Liquid", "note": "Numbers after ± are expanded uncertainties.", "data": [{"molecule": "C[SiH]1O[SiH](C)O[SiH](C)O[SiH](C)O[SiH](C)O1", "note": "(stereo not given) [2,4,6,8,10-pentamethylcyclopentasiloxane]", "values": [{"measurement": "vapor or sublimation pressure", "setting": "330.8 K", "result": 1.325, "unit": "kPa"}, {"measurement": "vapor or sublimation pressure", "setting": "348.03 K", "result": "3.325 ± 4", "unit": "kPa"}, {"measurement": "vapor or sublimation pressure", "setting": "357.45 K", "result": "5.325 ± 4.1", "unit": "kPa"}, {"measurement": "vapor or sublimation pressure", "setting": "364.75 K", "result": "7.325 ± 4.2", "unit": "kPa"}, {"measurement": "vapor or sublimation pressure", "setting": "370.73 K", "result": "9.325 ± 4.2", "unit": "kPa"}, {"measurement": "vapor or sublimation pressure", "setting": "375.49 K", "result": "11.32 ± 4.3", "unit": "kPa"}, {"measurement": "vapor or sublimation pressure", "setting": "378.23 K", "result": "13.32 ± 4.4", "unit": "kPa"}, {"measurement": "vapor or sublimation pressure", "setting": "381.78 K", "result": "15.32 ± 4.5", "unit": "kPa"}, {"measurement": "vapor or sublimation pressure", "setting": "385.02 K", "result": "17.32 ± 4.5", "unit": "kPa"}, {"measurement": "vapor or sublimation pressure", "setting": "387.96 K", "result": "19.32 ± 4.6", "unit": "kPa"}, {"measurement": "vapor or sublimation pressure", "setting": "390.75 K", "result": "21.32 ± 4.7", "unit": "kPa"}, {"measurement": "vapor or sublimation pressure", "setting": "393.18 K", "result": "23.32 ± 4.8", "unit": "kPa"}, {"measurement": "vapor or sublimation pressure", "setting": "395.46 K", "result": "25.32 ± 4.9", "unit": "kPa"}, {"measurement": "vapor or sublimation pressure", "setting": "397.89 K", "result": "27.32 ± 4.9", "unit": "kPa"}, {"measurement": "vapor or sublimation pressure", "setting": "399.92 K", "result": "29.32 ± 5", "unit": "kPa"}, {"measurement": "vapor or sublimation pressure", "setting": "401.9 K", "result": "31.32 ± 5.1", "unit": "kPa"}, {"measurement": "vapor or sublimation pressure", "setting": "403.77 K", "result": "33.33 ± 5.2", "unit": "kPa"}, {"measurement": "vapor or sublimation pressure", "setting": "405.7 K", "result": "35.33 ± 5.2", "unit": "kPa"}, {"measurement": "vapor or sublimation pressure", "setting": "407.22 K", "result": "37.33 ± 5.3", "unit": "kPa"}, {"measurement": "vapor or sublimation pressure", "setting": "408.94 K", "result": "39.33 ± 5.4", "unit": "kPa"}, {"measurement": "vapor or sublimation pressure", "setting": "410.46 K", "result": "41.33 ± 5.5", "unit": "kPa"}, {"measurement": "vapor or sublimation pressure", "setting": "411.98 K", "result": "43.33 ± 5.6", "unit": "kPa"}, {"measurement": "vapor or sublimation pressure", "setting": "413.4 K", "result": "45.33 ± 5.6", "unit": "kPa"}, {"measurement": "vapor or sublimation pressure", "setting": "414.87 K", "result": "47.33 ± 5.7", "unit": "kPa"}, {"measurement": "vapor or sublimation pressure", "setting": "416.19 K", "result": "49.33 ± 5.8", "unit": "kPa"}, {"measurement": "vapor or sublimation pressure", "setting": "417.55 K", "result": "51.33 ± 5.9", "unit": "kPa"}, {"measurement": "vapor or sublimation pressure", "setting": "423.53 K", "result": "61.33 ± 6.3", "unit": "kPa"}, {"measurement": "vapor or sublimation pressure", "setting": "429.06 K", "result": "71.33 ± 6.6", "unit": "kPa"}, {"measurement": "vapor or sublimation pressure", "setting": "433.77 K", "result": "81.33 ± 7", "unit": "kPa"}, {"measurement": "vapor or sublimation pressure", "setting": "437.93 K", "result": "91.33 ± 7.4", "unit": "kPa"}]}, {"molecule": "CCO", "note": "[ethanol]", "values": [{"measurement": "vapor or sublimation pressure", "setting": "303.95 K", "result": "11.32 ± 4.3", "unit": "kPa"}, {"measurement": "vapor or sublimation pressure", "setting": "315.75 K", "result": "21.32 ± 4.7", "unit": "kPa"}, {"measurement": "vapor or sublimation pressure", "setting": "323.5 K", "result": "31.32 ± 5.1", "unit": "kPa"}, {"measurement": "vapor or sublimation pressure", "setting": "329.35 K", "result": "41.33 ± 5.5", "unit": "kPa"}, {"measurement": "vapor or sublimation pressure", "setting": "334.05 K", "result": "51.33 ± 5.9", "unit": "kPa"}, {"measurement": "vapor or sublimation pressure", "setting": "338.05 K", "result": "61.33 ± 6.3", "unit": "kPa"}, {"measurement": "vapor or sublimation pressure", "setting": "341.65 K", "result": "71.33 ± 6.7", "unit": "kPa"}, {"measurement": "vapor or sublimation pressure", "setting": "344.75 K", "result": "81.33 ± 7.1", "unit": "kPa"}, {"measurement": "vapor or sublimation pressure", "setting": "347.55 K", "result": "91.33 ± 7.5", "unit": "kPa"}, {"measurement": "vapor or sublimation pressure", "setting": "350.15 K", "result": "101.33 ± 7.9", "unit": "kPa"}]}]}
